Laboratory results taken from paper PMC9229919, “4-Aminoquinoline-Based Adamantanes as Potential Anticholinesterase Agents in Symptomatic Treatment of Alzheimer’s Disease” (Pharmaceutics, 2022).
Read-outs that look alike come from different tables or passages of the source.

Columns and labels:
[1] = Reverse-phase thin-layer chromatographic lipophilicity (RF, RM0); format: physicochemical; details: for RM0: intercept of RM = RM0 + bC; for b: slope of RM = RM0 + bC; for RF, Methanol/Water/Hydrochloric acid (conc.), mobile phase I / RF, Dioxane/Water/Hydrochloric acid (conc.), mobile phase II / RF, Methanol/Water/Hydrochloric acid (conc.), mobile phase II / RF, Acetone/Water/Hydrochloric acid (conc.), mobile phase III / RF, Dioxane/Water/Hydrochloric acid (conc.), mobile phase III / RF, Methanol/Water/Hydrochloric acid (conc.), mobile phase III / RF, Dioxane/Water/Hydrochloric acid (conc.), mobile phase IV / RF, Acetone/Water/Hydrochloric acid (conc.), mobile phase IV / RF, Methanol/Water/Hydrochloric acid (conc.), mobile phase IV / RF, Acetone/Water/Hydrochloric acid (conc.), mobile phase IX / RF, Methanol/Water/Hydrochloric acid (conc.), mobile phase IX / RF, Dioxane/Water/Hydrochloric acid (conc.), mobile phase V / RF, Acetone/Water/Hydrochloric acid (conc.), mobile phase V / RF, Methanol/Water/Hydrochloric acid (conc.), mobile phase V / RF, Dioxane/Water/Hydrochloric acid (conc.), mobile phase VI / RF, Acetone/Water/Hydrochloric acid (conc.), mobile phase VI / RF, Methanol/Water/Hydrochloric acid (conc.), mobile phase VI / RF, Acetone/Water/Hydrochloric acid (conc.), mobile phase VII / RF, Methanol/Water/Hydrochloric acid (conc.), mobile phase VII / RF, Acetone/Water/Hydrochloric acid (conc.), mobile phase VIII / RF, Methanol/Water/Hydrochloric acid (conc.), mobile phase VIII: RP-18 silica; for RF, Methanol/Water/Hydrochloric acid (conc.), mobile phase I: I = 90%MeOH/5%H2O/5%HCl; for RF, Dioxane/Water/Hydrochloric acid (conc.), mobile phase II: II = 80%Dioxane/15%H2O/5%HCl; for RF, Methanol/Water/Hydrochloric acid (conc.), mobile phase II: II = 85%MeOH/10%H2O/5%HCl; for RF, Acetone/Water/Hydrochloric acid (conc.), mobile phase III: III = 70%AC/25%H2O/5%HCl; for RF, Dioxane/Water/Hydrochloric acid (conc.), mobile phase III: III = 70%Dioxane/25%H2O/5%HCl; for RF, Methanol/Water/Hydrochloric acid (conc.), mobile phase III: III = 80%MeOH/15%H2O/5%HCl; for RF, Dioxane/Water/Hydrochloric acid (conc.), mobile phase IV: IV = 60%Dioxane/35%H2O/5%HCl; for RF, Acetone/Water/Hydrochloric acid (conc.), mobile phase IV: IV = 65%AC/30%H2O/5%HCl; for RF, Methanol/Water/Hydrochloric acid (conc.), mobile phase IV: IV = 75%MeOH/20%H2O/5%HCl; for RF, Acetone/Water/Hydrochloric acid (conc.), mobile phase IX: IX = 40%AC/55%H2O/5%HCl; for RF, Methanol/Water/Hydrochloric acid (conc.), mobile phase IX: IX = 50%MeOH/45%H2O/5%HCl; for RF, Dioxane/Water/Hydrochloric acid (conc.), mobile phase V: V = 50%Dioxane/45%H2O/5%HCl; for RF, Acetone/Water/Hydrochloric acid (conc.), mobile phase V: V = 60%AC/35%H2O/5%HCl; for RF, Methanol/Water/Hydrochloric acid (conc.), mobile phase V: V = 70%MeOH/25%H2O/5%HCl; for RF, Dioxane/Water/Hydrochloric acid (conc.), mobile phase VI: VI = 40%Dioxane/55%H2O/5%HCl; for RF, Acetone/Water/Hydrochloric acid (conc.), mobile phase VI: VI = 55%AC/40%H2O/5%HCl; for RF, Methanol/Water/Hydrochloric acid (conc.), mobile phase VI: VI = 65%MeOH/30%H2O/5%HCl; for RF, Acetone/Water/Hydrochloric acid (conc.), mobile phase VII: VII = 50%AC/45%H2O/5%HCl; for RF, Methanol/Water/Hydrochloric acid (conc.), mobile phase VII: VII = 60%MeOH/35%H2O/5%HCl; for RF, Acetone/Water/Hydrochloric acid (conc.), mobile phase VIII: VIII = 45%AC/50%H2O/5%HCl; for RF, Methanol/Water/Hydrochloric acid (conc.), mobile phase VIII: VIII = 55%MeOH/40%H2O/5%HCl
Procedure: Chromatographic determination of lipophilicity
Merck, Darmstadt, Germany). The mobile phase contained organic modifier (methanol, acetone or dioxane), water and hydrochloric acid.
Methanol was varied in the range […]
with an increment of 10%. […]
before chromatogram development. The solvent developing distance was 4.5 cm. Detection of […]
All experiments were performed at ambient temperature (22±2 °C). Retention parameters were calculated as previously described. […]

[2] = Ferric reducing antioxidant power (FRAP) assay; details: mean ± standard error of three experiments;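 note: expressed as µM Fe2+ equivalents from an FeSO4·7H2O standard curve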
Procedure: . All the chemicals were purchased from Sigma-Aldrich (St. Louis, MO, USA), except for tripyridyltriazine (TPTZ) (Fluka, Buchs, Switzerland) and FeCl3 (Kemika, Zagreb, Croatia). The FRAP assay was assessed according to Benzie and Strain [53] with slight procedure adjustments for 96-well microplates. The method is based on the reduction of the ferric-tripyridyltriazine (Fe^3+-TPTZ) complex to ferrous tripyridyltriazine (Fe^2+-TPTZ) by the action of electron-donating compounds at a low pH. Briefly, the FRAP reagent was prepared by mixing acetate buffer (300 mM, pH 3.6), a solution of 10 mM TPTZ in 40 mM HCl, and 20 mM FeCl3 at 10:1:1 (v/v/v). Then, 240 μL of FRAP reagent and 10 μL of sample solution were added to a 96-well plate and incubated at 37 °C for 60 min. The absorbance was measured at 593 nm using a microplate reader (Infinite M200PRO, Tecan Austria GmbH, Salzburg, Austria) against a blank. The reducing capacity was determined for 10 and 100 µM compound concentrations. […]. All measurements were performed in three independent experiments. FRAP values, denominating the reduction of ferric-tripyridyltriazine (Fe^3+-TPTZ) to ferrous tripyridyltriazine (Fe^2+-TPTZ) by 4-aminoquinolines were calculated based on a standard curve obtained using […].

recombinant human AChE = target: T1, recombinant human AChE (Homo sapiens, UniProt P22303); assay: biochemical; format: biochemical; details: for IS: IS = Ki(BChE)/Ki(AChE), IS > 1 selective to AChE
T1 construct: gift of Dr Florian Nachon (Armed Forces Biomedical Research Institute, Brétigny-sur-Orge, France)
Procedure: (§1) Acetylthiocholine (ATCh) and 5,5′-dithiobis(2-nitrobenzoic acid) (DTNB) were purchased from Sigma-Aldrich, St. Louis, MO, USA. ATCh was dissolved in water and DTNB in 0.1 M sodium phosphate buffer (pH 7.4). The 4-aminoquinilines were dissolved in DMSO and all further dilutions were made in water.
(§2) The sources of AChE and BChE were purified human BChE and recombinant human AChE that was kindly provided by Dr Florian Nachon (Département de Toxicologie, Armed Forces Biomedical Research Institute, Brétigny-sur-Orge, France). […] The enzymes were diluted in sodium phosphate buffer 0.1 M (pH 7.4) containing 0.1% BSA.
(§3) Enzyme activities were measured spectrophotometrically using a slightly modified Ellman method, as described earlier. […] At least three inhibitor concentrations for each substrate concentration were used in at least three experiments. The apparent inhibition constant (Ki,app) was calculated using the Hunter–Downs Equation and linear regression analysis:(1) Ki,app=vi·i/v0−vi=Ki+Ki/KS·s where the y-intercept determines the enzyme-inhibitor dissociation constant (Ki), while the x-intercept determines the enzyme-substrate dissociation constant, KS.
(§4) The Hunter–Downs Equation was used under the assumption that the substrate, due to relatively low concentrations used in experiments, would bind only to the catalytic site of the enzymes, while the inhibitors would bind to both CAS and/or PAs. This allowed the type of inhibition to be determined from Ki,app vs. substrate concentration ([S]) dependency on Hunter–Downs plot.
(§5) The final content of DMSO in the measurements was up to 0.2%. […] The measurements were performed at 25 °C on a Tecan Infinite M200Pro plate reader (Tecan Austria GmbH, Salzburg, Austria).

purified human BChE = target: T2, purified human BChE (Homo sapiens, UniProt P06276); assay: biochemical; format: biochemical
T2 construct: possibly also a gift of Dr Florian Nachon (the sentence is ambiguous)
Procedure: as §1, §2, §3, §4, §5

[3] = Acetone/Water/Hydrochloric acid (conc.)
[4] = Dioxane/Water/Hydrochloric acid (conc.)
[5] = Methanol/Water/Hydrochloric acid (conc.)
[6] = log (Ki/µM AChE), read-out: Y Measured 1 log(ki)Ache (converted)
[7] = ± standard error, 25 °C, ATCh substrate, read-out: Ki AChE
[8] = logarithm of Ki in µM, BChE, dependent variable of the QSAR model, read-out: Y Measured 2 log(ki)Bche, log (Ki/µM BChE) (converted)
[9] = ± standard error, 25 °C, ATCh substrate, read-out: Ki BChE

T2 sequence (P06276 29-602): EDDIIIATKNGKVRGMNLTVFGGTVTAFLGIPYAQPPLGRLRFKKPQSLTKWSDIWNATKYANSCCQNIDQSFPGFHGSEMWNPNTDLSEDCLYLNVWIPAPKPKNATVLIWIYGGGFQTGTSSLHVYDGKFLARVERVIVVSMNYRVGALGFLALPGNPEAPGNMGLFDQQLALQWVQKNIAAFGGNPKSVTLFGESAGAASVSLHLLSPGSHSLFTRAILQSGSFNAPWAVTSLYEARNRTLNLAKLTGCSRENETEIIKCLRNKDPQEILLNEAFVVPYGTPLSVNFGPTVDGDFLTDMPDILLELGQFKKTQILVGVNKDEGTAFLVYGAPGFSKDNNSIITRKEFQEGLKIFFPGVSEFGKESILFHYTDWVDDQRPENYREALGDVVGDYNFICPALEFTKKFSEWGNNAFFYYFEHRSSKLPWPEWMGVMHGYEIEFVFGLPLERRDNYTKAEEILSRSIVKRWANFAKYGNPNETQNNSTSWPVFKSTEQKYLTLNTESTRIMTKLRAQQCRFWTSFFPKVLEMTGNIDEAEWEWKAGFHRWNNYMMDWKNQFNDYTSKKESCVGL
T1 sequence (P22303 32-614): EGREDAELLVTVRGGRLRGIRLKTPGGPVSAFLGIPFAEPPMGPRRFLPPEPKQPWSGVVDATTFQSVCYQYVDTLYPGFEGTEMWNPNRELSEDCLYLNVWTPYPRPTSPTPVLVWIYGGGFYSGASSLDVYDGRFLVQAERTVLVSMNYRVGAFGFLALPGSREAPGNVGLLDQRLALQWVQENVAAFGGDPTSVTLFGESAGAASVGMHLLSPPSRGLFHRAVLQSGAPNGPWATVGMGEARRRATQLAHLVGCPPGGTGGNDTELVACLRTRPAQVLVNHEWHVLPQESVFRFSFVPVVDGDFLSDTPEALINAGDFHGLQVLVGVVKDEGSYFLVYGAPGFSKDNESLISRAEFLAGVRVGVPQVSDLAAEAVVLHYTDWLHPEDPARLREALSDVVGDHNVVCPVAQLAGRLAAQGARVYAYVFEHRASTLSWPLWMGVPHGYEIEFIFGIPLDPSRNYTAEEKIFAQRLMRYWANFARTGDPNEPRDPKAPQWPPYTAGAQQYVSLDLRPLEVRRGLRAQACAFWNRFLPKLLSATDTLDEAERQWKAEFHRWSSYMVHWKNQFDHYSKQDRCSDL

Structure (SMILES) | RM0 [1, 3] | b [1, 3] | RM0 [1, 4] | b [1, 4] | RM0 [1, 5] | b [1, 5] | RF, Methanol/Water/Hydrochloric acid (conc.), mobile phase I [1] | RF, Dioxane/Water/Hydrochloric acid (conc.), mobile phase II [1] | RF, Methanol/Water/Hydrochloric acid (conc.), mobile phase II [1] | RF, Acetone/Water/Hydrochloric acid (conc.), mobile phase III [1] | RF, Dioxane/Water/Hydrochloric acid (conc.), mobile phase III [1] | RF, Methanol/Water/Hydrochloric acid (conc.), mobile phase III [1] | RF, Dioxane/Water/Hydrochloric acid (conc.), mobile phase IV [1] | RF, Acetone/Water/Hydrochloric acid (conc.), mobile phase IV [1] | RF, Methanol/Water/Hydrochloric acid (conc.), mobile phase IV [1] | RF, Acetone/Water/Hydrochloric acid (conc.), mobile phase IX [1] | RF, Methanol/Water/Hydrochloric acid (conc.), mobile phase IX [1] | RF, Dioxane/Water/Hydrochloric acid (conc.), mobile phase V [1] | RF, Acetone/Water/Hydrochloric acid (conc.), mobile phase V [1] | RF, Methanol/Water/Hydrochloric acid (conc.), mobile phase V [1] | other results
CC(CCNCC12CC3CC(CC(C3)C1)C2)Nc1ccnc2cc(Cl)ccc12 (centres unmarked) [Compound 12] | 1.835 | 3.007 | 0.75 | 1.647 | 2.4121 | 3.174 | 0.71 | 0.75 | 0.66 | 0.62 | 0.72 | 0.53 | 0.72 | 0.58 | 0.5 | 0.15 | 0.1 | 0.54 | 0.48 | 0.44 | RF, Dioxane/Water/Hydrochloric acid (conc.), mobile phase VI [1]: 0.4; RF, Acetone/Water/Hydrochloric acid (conc.), mobile phase VI [1]: 0.41; RF, Methanol/Water/Hydrochloric acid (conc.), mobile phase VI [1]: 0.36; RF, Acetone/Water/Hydrochloric acid (conc.), mobile phase VII [1]: 0.34; RF, Methanol/Water/Hydrochloric acid (conc.), mobile phase VII [1]: 0.25; RF, Acetone/Water/Hydrochloric acid (conc.), mobile phase VIII [1]: 0.29; RF, Methanol/Water/Hydrochloric acid (conc.), mobile phase VIII [1]: 0.18; FRAP ([2]; 10 µM compound): 24.2 ± 0.0 µM; FRAP ([2]; 100 µM compound): 37 ± 7 µM; IS (recombinant human AChE): 2.1; Ki (recombinant human AChE; [6]): 0.56 µM; Ki (recombinant human AChE; [7]): 0.56 ± 0.02 µM; Ki (purified human BChE; Ki BChE, ± standard error, 25 °C, ATCh substrate): 1.2 ± 0.1 µM
CC(CCNCCC12CC3CC(CC(C3)C1)C2)Nc1ccnc2ccccc12 (centres unmarked) [Compound 16] | 1.94 | 3.086 | 0.9042 | 1.814 | 2.5841 | 3.345 | 0.7 | 0.74 | 0.64 | 0.59 | 0.7 | 0.51 | 0.7 | 0.54 | 0.5 | 0.12 | 0.09 | 0.5 | 0.44 | 0.42 | RF, Dioxane/Water/Hydrochloric acid (conc.), mobile phase VI [1]: 0.35; RF, Acetone/Water/Hydrochloric acid (conc.), mobile phase VI [1]: 0.39; RF, Methanol/Water/Hydrochloric acid (conc.), mobile phase VI [1]: 0.31; RF, Acetone/Water/Hydrochloric acid (conc.), mobile phase VII [1]: 0.33; RF, Methanol/Water/Hydrochloric acid (conc.), mobile phase VII [1]: 0.21; RF, Acetone/Water/Hydrochloric acid (conc.), mobile phase VIII [1]: 0.26; RF, Methanol/Water/Hydrochloric acid (conc.), mobile phase VIII [1]: 0.15; FRAP ([2]; 10 µM compound): 4.1 ± 0.4 µM; FRAP ([2]; 100 µM compound): 46 ± 4 µM; IS (recombinant human AChE): 0.7; Ki (recombinant human AChE; [6]): 0.52 µM; Ki (recombinant human AChE; [7]): 0.52 ± 0.02 µM; Ki (purified human BChE; [8]): 0.38 µM; Ki (purified human BChE; [9]): 0.38 ± 0.03 µM
Clc1ccc2c(NCCCN3CCN(CCCNCCC45CC6CC(CC(C6)C4)C5)CC3)ccnc2c1 [Compound 23] | 1.784 | 2.934 | 0.7935 | 1.661 | 2.211 | 2.892 | 0.64 | 0.73 | 0.66 | 0.62 | 0.71 | 0.54 | 0.71 | 0.58 | 0.53 | 0.15 | 0.12 | 0.51 | 0.48 | 0.44 | RF, Dioxane/Water/Hydrochloric acid (conc.), mobile phase VI [1]: 0.38; RF, Acetone/Water/Hydrochloric acid (conc.), mobile phase VI [1]: 0.42; RF, Methanol/Water/Hydrochloric acid (conc.), mobile phase VI [1]: 0.37; RF, Acetone/Water/Hydrochloric acid (conc.), mobile phase VII [1]: 0.35; RF, Methanol/Water/Hydrochloric acid (conc.), mobile phase VII [1]: 0.25; RF, Acetone/Water/Hydrochloric acid (conc.), mobile phase VIII [1]: 0.31; RF, Methanol/Water/Hydrochloric acid (conc.), mobile phase VIII [1]: 0.18; FRAP ([2]; 10 µM compound): 1.4 ± 0.1 µM; FRAP ([2]; 100 µM compound): 20 ± 5 µM; IS (recombinant human AChE): 4.1; Ki (recombinant human AChE; [6]): 0.44 µM; Ki (recombinant human AChE; [7]): 0.44 ± 0.09 µM; Ki (purified human BChE; [8]): 1.8 µM; Ki (purified human BChE; [9]): 1.8 ± 0.2 µM
